From PMC5770468, “Cardiac glycoside/aglycones inhibit HIV-1 gene expression by a mechanism requiring MEK1/2-ERK1/2 signaling” (Scientific Reports, 2018)

Key:
HIV-infected PBMCs = assay: Ex vivo therapeutic index (CC50/IC50) in HIV-infected PBMCs; format: cell-based, human; conditions: CC50/IC50, day 14, HIV-infected PBMCs
From the text: Without median toxic dose (TD50) and half-maximal effective concentration (EC50) data available to calculate TIs (in vivo) from HIV patients treated with CSs, we determined the following TIs for each cell type treated with a CS (summarized in Supplementary Table S1): in vitro TIs from HeLa rtTA-HIV-ΔMls cells using CC20/IC50 (instead of CC50/IC50), in vitro TIs from 24ST1NLESG cells using CC50/IC50, and ex vivo TIs from HIV-infected PBMCs using CC50/IC50 (at day 14 of culture approximated from available cell viability trends for CC50s of Supplementary Fig. S13 and inferred near maximal IC50s).
Supplementary Figure S13. Estimation of the approximate ex vivo therapeutic indices of several
CSs. Ex vivo TIs were calculated from CC50/IC50 from day 14 of culture of HIV-infected patient PBMCs treated with CSs. CC50s were estimated/extrapolated from data points by their trends (dashed arrows) from XTT assays of cell viability (gray circles) and their inferred near maximal IC50s estimated from results on HIV-1 p24CA (Gag) production (black circles) from Figures 2f-h and some data points published on digoxin [Wong et al. (2013). PLoS Pathog 9(3):e1003241]. […]

ERK1/2 = ERK1/2 activation (phospho/total) by western blot in HeLa rtTA-HIV(Gag-GFP) cells; format: cell-based, human; conditions: relative to DMSO (+)
Procedure: Figure 6 CSs control HIV-1 gene expression through intracellular signaling. HeLa rtTA-HIV(Gag-GFP) cells were pre-treated with/without pathway inhibitor overnight (~15 h) and treated with ~IC80s of CSs. […] (a–c) ERK1/2, MK-2, and JNK1/2/3 are activated upon treatment of cells with CSs (n ≥ 4–6, 3–4, and 3–6, resp., mean, s.e.m.). Graphs quantifying the activation level (phospho/total protein) of each MAP/MAPK by western blot. In (a), the results of pre-treating cells with a MEK1/2 inhibitor (12 μM U0126, MEKi) on ERK1/2 activation is also shown and a representative immunoblot is provided in Supplementary Figure S9c. (d) Representative immunoblots of MAP/MAPK activation levels from (a–c). (e–g) MEK1/2 activation may be involved in CS inhibition of HIV-1 gene expression. The signaling pathway(s) used by a CS to inhibit HIV-1 expression was determined by detecting Gag-GFP fluorescence in cell lysates (~35 μg) by reducing SDS-PAGE after pre-treatment of cells with a MEK1/2 (12 μM U0126, white), p38α/β/β2 (15 μM SB203580/p38i, gray), or JNK1/2/3 (1.25 μM SP600125/JNKi, hatched) inhibitor (n ≥ 5–7, 4–8, and 3–7, resp., mean, s.e.m.). Results were shown relative to DMSO (+). […]
Figure 7 Activation of the MEK1/2-ERK1/2 signaling pathway suppresses HIV-1 gene expression. […] RNAs were quantified by qRT-PCR as described in Figures 4a,b. […]

SMILES | better approximate ex vivo TI than FDA-approved counterparts (HIV-infected PBMCs) [fold] | ERK1/2 activation (ERK1/2)
C[C@]12CC[C@H](O)C[C@H]1CC[C@@H]1[C@@H]2CC[C@]2(C)[C@@H](C3=CC(=O)OC3)CC[C@]12O [Digitoxigenin] | ≥ 1.5 | 
COc1ccc(C[C@H]2NC[C@H](O)[C@H]2OC(C)=O)cc1 [anisomycin, Anisomycin] |  | activated
